The values below come from BindingDB's records for PubMed 35033884 (Indian Institute of Technology (B.H.U.), 2022).

A short description of this test: Inhibition of PDK1 (unknown origin).
Regarding `C/C(=C1/C(=O)Nc2ccc(NC(N)=O)cc21)c1cc(CNC(=O)C2CCNCC2)c[nH]1` [N-[(5-{1-[(3Z)-5-(carbamoylamino)-2-oxo-2,3-dihydro-1H-indol-3-ylidene]ethyl}-1H-pyrrol-3-yl)methyl]piperidine-4-carboxamide], the IC50 came to 6 nM.

In turn, `NC(=O)Nc1ccc2c(c1)/C(=C/c1cc(-c3ccccn3)c[nH]1)C(=O)N2` had an IC50 of 8 nM.

Compound `NC(=O)Nc1ccc2c(c1)/C(=C/c1ccc[nH]1)C(=O)N2` [indolinone based inhibitor, 3l] yielded an IC50 of 20 nM.

In turn, `CN(C)CCNC(=O)c1cccc(-c2c[nH]c(/C=C3\C(=O)Nc4ccc(NC(N)=O)cc43)c2)c1` [3-(5-{[(3Z)-5-(carbamoylamino)-2-oxo-2,3-dihydro-1H-indol-3-ylidene]methyl}-1H-pyrrol-3-yl)-N-[2-(dimethylamino)ethyl]benzamide] came in with an IC50 of 4 nM.
